Test results reported in ChEMBL document CHEMBL3608233, “Potent benzoazepinone γ-secretase modulators with improved bioavailability” (Bioorg Med Chem Lett, 2015).
Converted amounts (≈) assume the structure as drawn.

What was measured:
in vivo [1] = details: APP YAC Tg, mouse, brain, 50 mg/kg
in vivo [2] = details: APP YAC Tg, mouse, plasma, 50 mg/kg
in vitro [3] = details: dog, hepatocytes
in vitro [4] = details: pig, LLC-PK1
[5] = Drug uptake in brain of APP YAC Tg mouse model at 30 mg/kg after 6 hrs; assay type: ADME, organism-based; details: read-out: Drug uptake
in vivo [6] = details: beagle, dog, iv
in vivo [7] = details: Sprague-Dawley, rat, iv, 1 mg/kg
[8] = Drug metabolism in dog urine assessed as oxidation of benzoazepinone; assay type: ADME, tissue-based, Canis lupus familiaris
in vitro [9] = details: human, hepatocytes
[10] = Drug metabolism in dog hepatocytes assessed as oxidation of benzoazepinone; assay type: ADME, cell-based, Canis lupus familiaris, Hepatocyte
physchem [11] = details: buffer, pH 2
in vivo [12] = details: Sprague-Dawley, rat
in vivo [13] = details: Sprague-Dawley, rat, iv, 1 mg/kg; remark: listed apart in the source
in vivo [14] = details: Sprague-Dawley, rat, po, 2 mg/kg
in vivo [15] = details: beagle, dog
[16] = Plasma concentration in APP YAC Tg mouse model at 30 mg/kg after 6 hrs; assay type: ADME, organism-based
in vitro [17] = details: rat, hepatocytes
in vivo [18] = details: beagle, dog, iv; remark: listed apart in the source
Canis familiaris = species on record: Canis familiaris; details: dog, in vivo, po, 0.5 mg/kg
[19] = Drug metabolism in dog urine assessed as oxidation of methylimidazole; assay type: ADME, tissue-based, Canis lupus familiaris
[20] = Ratio of drug level in brain to plasma in APP YAC Tg mouse model at 30 mg/kg after 6 hrs; assay type: ADME, organism-based; details: brain and plasma, read-out: BPR
[21] = Drug metabolism in dog urine assessed as formation of methyl ester cleavage product; assay type: ADME, tissue-based, Canis lupus familiaris
physchem [22] = details: buffer, pH 7
[23] = Drug metabolism in dog hepatocytes assessed as formation of methyl ester cleavage product; assay type: ADME, cell-based, Canis lupus familiaris, Hepatocyte
in vivo [24] = details: APP YAC Tg, mouse, plasma, 100 mg/kg
in vivo [25] = details: APP YAC Tg, mouse, brain, 100 mg/kg

**Q.** Which concentration at 6 h (in vivo [1]) does the source give for `Cc1cn(-c2ccc(-c3cn([C@H]4CCc5c(F)cccc5N(CC(F)(F)F)C4=O)nn3)cc2F)cn1` here?
**A.** 6.8 µM

**Q.** And the concentration at 6 h (in vivo [2])?
**A.** 15 µM

**Q.** Which CLint scaled (in vitro [3]) does the source give for `COc1cc(-c2cn([C@H]3CCc4c(F)cccc4N(CC(F)(F)F)C3=O)nn2)ccc1-n1cnc(C)c1` here?
**A.** 400 mL/min/kg

**Q.** And the Papp (in vitro [4])?
**A.** 21 ×10⁻⁶ cm/s

**Q.** And the concentration at 6 h [5]?
**A.** 1.6 µM

**Q.** And the Vd (in vivo [6])?
**A.** 5.6 L/kg

**Q.** And the clearance (in vivo [7])?
**A.** 38 mL/min/kg

**Q.** What about the Drug metabolism [8] of the same compound?
**A.** metabolite_detected

**Q.** And the CLint scaled (in vitro [9])?
**A.** 94 mL/min/kg

**Q.** And the Drug metabolism [10]?
**A.** metabolite_detected

**Q.** And the solubility (physchem [11])?
**A.** 170 µM (≈ 87.5 µg/mL)

**Q.** And the half-life (in vivo [12])?
**A.** 48 min

**Q.** What about the Vd (in vivo [13]) of the same compound?
**A.** 4.8 L/kg

**Q.** And the bioavailability (in vivo [14])?
**A.** 100%

**Q.** What about the half-life (in vivo [15]) of the same compound?
**A.** 42 min

**Q.** What about the concentration at 6 h [16] of the same compound?
**A.** 5.1 µM

**Q.** And the CLint scaled (in vitro [17])?
**A.** 210 mL/min/kg

**Q.** What about the clearance (in vivo [18]) of the same compound?
**A.** 98 mL/min/kg

**Q.** What about the F (Canis familiaris) of the same compound?
**A.** BLD

**Q.** And the Drug metabolism [19]?
**A.** metabolite_detected

**Q.** And the Kp at 6 h [20]?
**A.** 0.3

**Q.** And the Drug metabolism [21]?
**A.** metabolite_notdetected

**Q.** And the solubility (physchem [22])?
**A.** 4.2 µM (≈ 2.16 µg/mL)

**Q.** And the Drug metabolism [23]?
**A.** metabolite_notdetected

**Q.** For `COc1cc(-c2cn([C@H]3CCc4c(F)cccc4N(CC(F)(F)F)C3=O)nn2)ccc1-n1cnc(C(F)(F)F)c1`, which concentration at 6 h (in vivo [24]) is on record?
**A.** 4.5 µM

**Q.** And the concentration at 6 h (in vivo [25])?
**A.** 0.87 µM
